# From the supplement of paper PMC10307832
# Experiments:
# Experiment in all cases: relative viability (nuclei count vs DMSO), 5 days (fraction); higher = more cells survive
# [1] = compound: CC1=C(C(=O)N2C=CSC2=N1)CCN3CCC(=C(C4=CC=CC=C4)C5=CC=C(C=C5)F)CC3 + CC(C)C[C@H](NC(=O)[C@H](Cc1ccccc1)NC(=O)c1cnccn1)B(O)O [Bortezomib] (partner 0.002 µM)
# Procedure, shortened: (§1)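 For relative viability, nuclei counts in treated wells were divided by those in vehicle wells. Lung cancer cell lines had been pin-tool dosed in 1536-well plates the day after seeding and cultured for 5 days, then fixed and stained in one step (final 0.05% Triton X-100, 1% formaldehyde, 1 ug/ml Hoechst) and imaged at 4×. Doses were one drug alone or a fixed anchor-drug dose plus five library-drug doses (not always all listed) in √10 steps, and values are duplicate-plate medians.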
# [2] = compound: CC1=C(C(=O)N2C=CSC2=N1)CCN3CCC(=C(C4=CC=CC=C4)C5=CC=C(C=C5)F)CC3 + CC1(C)CCC(c2ccc(Cl)cc2)=C(CN2CCN(c3ccc(C(=O)NS(=O)(=O)c4ccc(N[C@H](CCN5CCOCC5)CSc5ccccc5)c(S(=O)(=O)C(F)(F)F)c4)cc3)CC2)C1 [Navitoclax] (partner 0.5 µM)
# Procedure, shortened: as §1
# [3] = compound: CC1=C(C(=O)N2C=CSC2=N1)CCN3CCC(=C(C4=CC=CC=C4)C5=CC=C(C=C5)F)CC3 + CCNC(=O)c1noc(-c2cc(C(C)C)c(O)cc2O)c1-c1ccc(CN2CCOCC2)cc1 [Luminespib] (partner 0.01 µM)
# Procedure, shortened: as §1
# [4] = compound: CC1=C(C(=O)N2C=CSC2=N1)CCN3CCC(=C(C4=CC=CC=C4)C5=CC=C(C=C5)F)CC3 + Cc1nc(Nc2ncc(C(=O)Nc3c(C)cccc3Cl)s2)cc(N2CCN(CCO)CC2)n1 [Dasatinib] (partner 0.075 µM)
# Procedure, shortened: as §1
Cell Line,relative viability ([1]; first compound 0.08 µM),relative viability ([1]; first compound 0.253 µM),relative viability ([1]; first compound 0.8 µM),relative viability ([1]; first compound 2.53 µM),relative viability ([1]; first compound 8 µM),relative viability ([2]; first compound 0.08 µM),relative viability ([2]; first compound 0.253 µM),relative viability ([2]; first compound 0.8 µM),relative viability ([2]; first compound 2.53 µM),relative viability ([2]; first compound 8 µM),relative viability ([3]; first compound 0.08 µM),relative viability ([3]; first compound 0.253 µM),relative viability ([3]; first compound 0.8 µM),relative viability ([3]; first compound 2.53 µM),relative viability ([3]; first compound 8 µM),relative viability ([4]; first compound 0.08 µM),relative viability ([4]; first compound 0.253 µM),relative viability ([4]; first compound 0.8 µM),relative viability ([4]; first compound 2.53 µM),relative viability ([4]; first compound 8 µM)
LU99A,1.23,1.11,1.05,1.14,0.904,0.919,0.867,0.734,0.929,0.631,0.274,0.262,0.282,0.205,0.259,0.507,0.544,0.57,0.551,0.422
LXF-289,1.08,1.13,1.05,0.97,0.933,0.917,1.19,0.947,0.97,0.816,0.513,0.713,0.599,0.839,0.529,0.276,0.18,0.214,0.209,0.189
NCI-H23,0.705,1.08,1.1,0.974,0.545,0.722,0.862,0.776,0.863,0.489,0.205,0.207,0.22,0.23,0.241,0.659,0.674,0.867,0.703,0.518
NCI-H322M,1.3,1.28,1.24,1.35,1.09,0.987,1.29,1.34,1.36,0.889,0.768,0.899,0.928,0.888,0.81,0.267,0.238,0.246,0.254,0.27
NCI-H441,–,0.447,0.464,0.468,0.215,–,0.694,0.686,0.638,0.371,0.314,0.477,0.369,0.361,0.339,0.526,0.678,0.679,0.541,0.507
NCI-H460,0.718,0.799,1.3,–,0.184,0.787,0.957,1.55,1.56,0.0629,0.0343,0.034,0.0356,0.0314,0.0271,0.508,0.444,0.486,0.574,0.395
NCI-H520,0.615,0.485,0.57,0.999,0.523,1.04,0.939,1.21,1.35,0.701,0.202,0.236,0.25,0.251,0.248,0.208,0.195,0.221,0.209,0.182
NCI-H596,1.09,1.02,0.903,0.887,0.989,0.85,1.17,1.04,1.1,0.556,1.05,0.978,1.23,1.08,0.655,0.636,0.653,0.612,0.627,0.421
NCI-H647,0.858,0.744,0.888,1.5,0.453,1.12,1.13,1.11,1.2,0.476,0.142,0.157,0.153,0.119,0.179,0.12,0.15,0.167,0.18,0.0953
NCI-H727,0.802,1.03,0.997,0.858,0.633,0.346,0.481,0.444,0.48,0.383,0.284,0.668,0.346,0.331,0.38,0.319,0.338,0.394,0.396,0.319
NCI-H838,0.591,0.581,0.654,0.824,0.696,0.986,1.08,1.15,1.62,0.494,0.298,0.263,0.227,0.318,0.259,0.295,0.27,0.258,0.31,0.282
NCI-H1355,1.28,1.25,1.25,1.21,0.921,0.976,0.984,0.996,1.09,0.787,0.767,0.735,0.809,0.656,0.675,0.698,0.605,0.769,0.771,0.632
NCI-H1437,–,0.398,0.476,0.484,0.351,–,0.924,1.09,1.44,0.693,1.11,1.21,1.28,1.27,0.739,0.471,0.346,0.434,0.426,0.339
NCI-H1650,0.216,0.193,0.21,0.234,0.227,0.992,1.2,1.16,1.44,0.865,0.182,0.204,0.196,0.188,0.189,0.436,0.324,0.297,0.405,0.263
NCI-H1651,0.858,0.874,0.908,1.01,0.809,0.984,0.654,1.01,1.29,0.404,1.04,0.943,1.07,1.04,0.588,0.406,0.535,0.423,0.434,0.341
NCI-H1666,0.83,0.762,0.924,0.815,0.695,0.991,0.854,1.04,1.16,0.836,1.07,1.06,1.01,0.984,0.848,0.794,0.689,0.827,0.861,0.63
NCI-H1734,0.873,0.715,0.915,1.12,0.447,0.732,0.818,0.966,0.795,0.493,0.202,0.174,0.205,0.166,0.183,0.484,0.438,0.458,0.468,0.35
NCI-H1755,0.948,0.9,0.962,1.11,0.44,0.932,1.02,1.1,1.02,0.56,0.467,0.548,0.374,0.333,0.519,0.373,0.422,0.462,0.401,0.269
NCI-H1792,0.742,0.614,0.976,0.77,0.438,0.454,0.518,0.602,0.481,0.47,0.354,0.444,0.585,0.379,0.349,0.72,0.574,0.817,0.837,0.352
NCI-H1915,1.02,0.864,1.1,0.971,0.472,0.741,0.691,0.832,0.807,0.725,1.01,0.655,0.797,0.656,0.499,0.371,0.315,0.305,0.374,0.252
NCI-H1975,0.35,0.329,0.368,0.434,0.362,1.08,1.02,1.17,1.26,0.573,0.202,0.303,0.167,0.292,0.181,0.355,0.395,0.345,0.386,0.304
NCI-H1993,0.834,–,0.919,1.5,0.987,0.954,–,1.12,1.05,0.917,0.79,0.841,0.916,0.897,0.768,0.513,0.533,0.559,0.596,0.507
NCI-H2009,1.25,1.11,0.986,1.03,0.88,1.15,1.14,1.18,1.22,1.09,0.973,0.955,1.08,1.11,0.9,0.369,0.304,0.28,0.332,0.285
NCI-H2023,1.2,0.905,0.917,1.08,0.736,0.99,0.894,0.997,1.08,1.09,1.37,0.783,0.864,0.946,0.518,0.549,0.58,0.602,0.513,0.363
NCI-H2085,1.04,1.02,1.07,1.07,0.878,1.12,1.1,1.21,1.1,0.908,0.361,0.362,0.458,0.392,0.323,0.279,0.224,0.202,0.242,0.258
NCI-H2087,0.836,0.795,1.02,1.02,0.589,1,0.712,0.995,1.23,0.794,0.132,0.208,0.22,0.185,0.142,0.91,0.87,0.882,0.752,0.637
NCI-H2126,1.24,1.07,1.15,1.22,1.08,0.835,0.839,0.846,0.971,0.799,0.613,1.08,0.903,0.92,0.843,0.529,0.553,0.565,0.634,0.689
